≈ marks a conversion by molar mass, not a printed value. Like-named read-outs stand apart in the source and are kept apart here.
Tests used:
[1] = Kinetic solubility in phosphate-buffered saline, pH 7.4; format: physicochemical; details: for solubility at 2 h: PBS solubility
Experimental: Analysis of Aqueous Solubility […]
compound (Ondansetron) were assessed for kinetic solubility in phosphate -buffered saline, pH 7.4.
Phosphate buffered saline, pH 7.4 (Sigma -Aldrich, USA; Cat #P3813) […]
MultiScreen HTS 96 Well Filter Plates (Millipore, Ireland; Cat # MSSLBPC10) […]
Matrix Multichannel Electronic Pipette 2-125 μL, 5-250 μL, 15-1250 μL (Thermo Scientific, USA; […]
Vacuum pump (Millipore, USA; Model # XX5500000)
The measurements were performed using SpectraMax Plus reader in UV -Vis mode. Acquisition and […]
The measurements were performed using SpectraMax Paradigm reader in UV-Vis mode.
Acquisition and analysis of the data were performed using SoftMax Pro v.5.4 (Molecular Devices) […]
Kinetic solubility assay was performed according to the Enamine’s aqueous solubility SOP. Briefly, using a 20 mM stock solution of the compound in 100% DMSO dilutions were prepared to a theoretical concentration of 400 μM in duplicates in phosphate-buffered saline pH 7.4 […]
compound dilutions in PBS were further allowed to equilibrate at 25 °C on a thermostatic shaker for two hours and then filtered through HTS filter plates using a vacuum manifold. The filtrates of test compounds were diluted 2-fold with acetonitrile with 2% DMSO before measuring.
In parallel, compound dilutions in 50% acetonitrile/PBS were prepared to theoretical concentrations […]
calibration curves. Ondansetron was used as reference compound to control proper assay performance. 200 μl of each sample was transferred to 96-well plate and measured in 230-550 nm range with 5 nm step. The effective range of this assay is approximately 2-400 μM and the […]
The concentrations of compounds in PBS filtrate are calculated using a dedicated Microsoft Excel calculation script. Proper absorbance wavelengths for calculations are selected for each compound manually based on absorbance maximums (absolute absorbance unit values for the minimum and maximum concentration points within the 0 – 3 OD range). Each final dataset is visually evaluated by the operator, and goodness of fit (R2) is calculated for each calibration curve. […]
samples were diluted 2-fold with acetonitrile containing internal standard and were analyzed using the HPLC system coupled with a tandem mass spectrometer. The effective range of this assay is […]

| solubility kinetic at 2 h ([1]; 25 °C, pH 7.4, aqueous buffer, kinetic from dmso stock) | D (Table S5, injection 1, octanol/PBS pH 7.4) | D (Table S5, injection 2, octanol/PBS pH 7.4) | D (Table S5, injection 3, octanol/PBS pH 7.4) | SMILES | solubility at 2 h ([1]; 25 °C, pH 7.4, aqueous buffer, kinetic from dmso stock, pH 7.4, Incubation 1) | solubility at 2 h ([1]; 25 °C, pH 7.4, aqueous buffer, kinetic from dmso stock, pH 7.4, Incubation 2) | solubility at 2 h ([1]; 25 °C, pH 7.4, aqueous buffer, kinetic from dmso stock, pH 7.4, Mean) | PBS solubility, pH 7.4, Incubation 1 ([1]; Table S1, 1st batch) | PBS solubility, pH 7.4, Incubation 2 ([1]; Table S1, 1st batch) |
| --- | --- | --- | --- | --- | --- | --- | --- | --- | --- |
| 3 µM (≈ 2.08 µg/mL) | 5.98E+08 | 3.42E+05 | 6.79E+04 | O=C(NC1CCN(CCCCC2(C(=O)NCC(F)(F)F)c3ccccc3-c3ccccc32)CC1)c1ccccc1-c1ccc(C(F)(F)F)cc1 [Lomitapide, lomitapide] | – | – | – | – | – |
| – | – | – | – | Cc1nccn1CC1CCc2c(c3ccccc3n2C)C1=O (stereo not drawn) [Ondansetron, reference compound] | 126 µM (≈ 37 µg/mL) | 126 µM (≈ 37 µg/mL) | 126 µM (≈ 37 µg/mL) | 121 µM | 119 µM |

— PMC10718076, “1,2-Disubstituted bicyclo[2.1.1]hexanes as saturated bioisosteres of ortho-substituted benzene” (Chemical Science, 2023)
